{"source": "patent US9980943B2", "about": "“Methods of treating muscular dystrophy” (BOARD OF REGENTS OF THE NEVADA SYSTEM OF HIGHER EDUCATION, …, priority 2013, dated 2018)", "assay_type_in_all_cases": "cell-based, mouse", "key": {"[1]": {"system": "α7 integrin (LacZ reporter in α7βgal+/− myoblasts)", "experiment": "Myoblast α7+/LacZ integrin FDG assay (Burkin assay in myoblasts, 96-well)", "conditions": "α7+/LacZ myoblasts, 96-well"}, "[2]": {"system": "α7 integrin (LacZ reporter in α7+/LacZ myotubes)", "experiment": "Myotube α7 integrin FDG assay (Burkin assay in myotubes, 96-well)", "conditions": "myotubes"}, "[3]": {"system": "β-galactosidase in CMV-LacZ C2C12 myotubes", "experiment": "CMV-LacZ secondary screen in C2C12 myotubes (β-Gal stabilizing assay)", "conditions": "for CMV-LACZ in Myotubes (β-galactosidase activity relative to DMSO): CMV-LacZ C2C12 myotubes, 96-well format", "how_it_was_run": "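First, C2C12 myoblasts were transfected with a linearized CMV-LACZ vector and clonal lines selected by FDG β-gal assay. Then cells were exposed to compounds at 0.5, 1, 5, 10, 20 and 40 μM in 96-well format, two replicates each, and β-gal measured.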"}}}
{"smiles": "COc1ccc(Nc2ncnc3ccc(Br)cc23)cc1OC", "note": "[MLS001196422-01]", "values": [{"measurement": "fold induction at 0.5 µM", "setting": "[1]; Mus musculus, Myoblast, 48 h, 0.5 uM, read-out: Burkin Assay in Myoblasts, signal relative to DMSO", "value": 0.746}, {"measurement": "fold induction at 1 µM", "setting": "[1]; Mus musculus, Myoblast, 48 h, 1 uM, read-out: Burkin Assay in Myoblasts, signal relative to DMSO", "value": 0.978}, {"measurement": "fold induction at 5 µM", "setting": "[1]; Mus musculus, Myoblast, 48 h, 5 uM, read-out: Burkin Assay in Myoblasts, signal relative to DMSO", "value": 1.23}, {"measurement": "fold induction at 10 µM", "setting": "[1]; Mus musculus, Myoblast, 48 h, 10 uM, read-out: Burkin Assay in Myoblasts, signal relative to DMSO", "value": 1.33}, {"measurement": "fold induction at 20 µM", "setting": "[1]; Mus musculus, Myoblast, 48 h, 20 uM, read-out: Burkin Assay in Myoblasts, signal relative to DMSO", "value": 1.25}, {"measurement": "fold induction at 40 µM", "setting": "[1]; Mus musculus, Myoblast, 48 h, 40 uM, read-out: Burkin Assay in Myoblasts, signal relative to DMSO", "value": 1}, {"measurement": "fold induction at 0.5 µM", "setting": "[2]; Mus musculus, Myotube, 0.5 uM, read-out: Burkin Assay in Myotubes, α7 integrin LacZ reporter signal relative to DMSO", "value": 0.976}, {"measurement": "fold induction at 1 µM", "setting": "[2]; Mus musculus, Myotube, 1 uM, read-out: Burkin Assay in Myotubes, α7 integrin LacZ reporter signal relative to DMSO", "value": 1.14}, {"measurement": "fold induction at 5 µM", "setting": "[2]; Mus musculus, Myotube, 5 uM, read-out: Burkin Assay in Myotubes, α7 integrin LacZ reporter signal relative to DMSO", "value": 1.19}, {"measurement": "fold induction at 10 µM", "setting": "[2]; Mus musculus, Myotube, 10 uM, read-out: Burkin Assay in Myotubes, α7 integrin LacZ reporter signal relative to DMSO", "value": 1.32}, {"measurement": "fold induction at 20 µM", "setting": "[2]; Mus musculus, Myotube, 20 uM, read-out: Burkin Assay in Myotubes, α7 integrin LacZ reporter signal relative to DMSO", "value": 1.09}, {"measurement": "fold induction at 40 µM", "setting": "[2]; Mus musculus, Myotube, 40 uM, read-out: Burkin Assay in Myotubes, α7 integrin LacZ reporter signal relative to DMSO", "value": 0.975}, {"measurement": "fold induction at 5 µM", "setting": "[3]; Mus musculus, 5 uM, C2C12 CMV-LacZ myotubes, fold relative to DMSO, read-out: CMV-LACZ in Myotubes, signal relative to DMSO", "value": 0.896}, {"measurement": "fold induction at 10 µM", "setting": "[3]; Mus musculus, 10 uM, C2C12 CMV-LacZ myotubes, fold relative to DMSO, read-out: CMV-LACZ in Myotubes, signal relative to DMSO", "value": 0.893}, {"measurement": "fold induction at 20 µM", "setting": "[3]; Mus musculus, 20 uM, C2C12 CMV-LacZ myotubes, fold relative to DMSO, read-out: CMV-LACZ in Myotubes, signal relative to DMSO", "value": 0.83}, {"measurement": "fold induction at 40 µM", "setting": "[3]; Mus musculus, 40 uM, C2C12 CMV-LacZ myotubes, fold relative to DMSO, read-out: CMV-LACZ in Myotubes, signal relative to DMSO", "value": 0.856}]}
{"smiles": "CCOc1cc(/C=C2\\C(=O)ON=C2c2ccccc2)ccc1OC", "note": "[MLS001196946-01]", "values": [{"measurement": "Burkin Assay in Myoblasts, value relative to DMSO", "setting": "[1]; 0.5 uM", "value": 0.9541}, {"measurement": "Burkin Assay in Myoblasts, value relative to DMSO", "setting": "[1]; 1 uM", "value": 0.9798}, {"measurement": "Burkin Assay in Myoblasts, value relative to DMSO", "setting": "[1]; 5 uM", "value": 0.7989}, {"measurement": "Burkin Assay in Myoblasts, value relative to DMSO", "setting": "[1]; 10 uM", "value": 0.6188}, {"measurement": "Burkin Assay in Myoblasts, value relative to DMSO", "setting": "[1]; 20 uM", "value": 0.1194}, {"measurement": "Burkin Assay in Myoblasts, value relative to DMSO", "setting": "[1]; 40 uM", "value": 0.08385}, {"measurement": "Burkin Assay in Myotubes (signal relative to DMSO)", "setting": "[2]; 0.5 uM", "value": 0.9942}, {"measurement": "Burkin Assay in Myotubes (signal relative to DMSO)", "setting": "[2]; 1 uM", "value": 1.113}, {"measurement": "Burkin Assay in Myotubes (signal relative to DMSO)", "setting": "[2]; 5 uM", "value": 1.002}, {"measurement": "Burkin Assay in Myotubes (signal relative to DMSO)", "setting": "[2]; 10 uM", "value": 0.9469}, {"measurement": "Burkin Assay in Myotubes (signal relative to DMSO)", "setting": "[2]; 20 uM", "value": 0.5465}, {"measurement": "Burkin Assay in Myotubes (signal relative to DMSO)", "setting": "[2]; 40 uM", "value": 0.2832}, {"measurement": "CMV-LACZ in Myotubes (β-galactosidase activity relative to DMSO)", "setting": "[3]; 5 uM", "value": 0.9817}, {"measurement": "CMV-LACZ in Myotubes (β-galactosidase activity relative to DMSO)", "setting": "[3]; 10 uM", "value": 1.13}, {"measurement": "CMV-LACZ in Myotubes (β-galactosidase activity relative to DMSO)", "setting": "[3]; 20 uM", "value": 2.7886}, {"measurement": "CMV-LACZ in Myotubes (β-galactosidase activity relative to DMSO)", "setting": "[3]; 40 uM", "value": 3.9614}]}
{"smiles": "CC1(C)CC(=O)C=C(Nc2ccc(C(=O)O)c(O)c2)C1", "note": "[MLS001198693-01]", "values": [{"measurement": "Burkin Assay in Myoblasts, signal relative to DMSO", "setting": "[1]; 0.5 uM", "value": 0.9617}, {"measurement": "Burkin Assay in Myoblasts, signal relative to DMSO", "setting": "[1]; 1 uM", "value": 0.5426}, {"measurement": "Burkin Assay in Myoblasts, signal relative to DMSO", "setting": "[1]; 5 uM", "value": 0.9229}, {"measurement": "Burkin Assay in Myoblasts, signal relative to DMSO", "setting": "[1]; 10 uM", "value": 0.9137}, {"measurement": "Burkin Assay in Myoblasts, signal relative to DMSO", "setting": "[1]; 20 uM", "value": 0.9351}, {"measurement": "Burkin Assay in Myoblasts, signal relative to DMSO", "setting": "[1]; 40 uM", "value": 0.9164}, {"measurement": "Burkin Assay in Myotubes, α7 integrin LacZ reporter signal relative to DMSO", "setting": "[2]; 0.5 uM", "value": 0.96}, {"measurement": "Burkin Assay in Myotubes, α7 integrin LacZ reporter signal relative to DMSO", "setting": "[2]; 1 uM", "value": 0.9048}, {"measurement": "Burkin Assay in Myotubes, α7 integrin LacZ reporter signal relative to DMSO", "setting": "[2]; 5 uM", "value": 1.011}, {"measurement": "Burkin Assay in Myotubes, α7 integrin LacZ reporter signal relative to DMSO", "setting": "[2]; 10 uM", "value": 0.9514}, {"measurement": "Burkin Assay in Myotubes, α7 integrin LacZ reporter signal relative to DMSO", "setting": "[2]; 20 uM", "value": 0.9319}, {"measurement": "Burkin Assay in Myotubes, α7 integrin LacZ reporter signal relative to DMSO", "setting": "[2]; 40 uM", "value": 1.116}, {"measurement": "CMV-LACZ in Myotubes, signal relative to DMSO", "setting": "[3]; 5 uM, C2C12 CMV-LacZ myotubes, fold relative to DMSO", "value": 1.092}, {"measurement": "CMV-LACZ in Myotubes, signal relative to DMSO", "setting": "[3]; 10 uM, C2C12 CMV-LacZ myotubes, fold relative to DMSO", "value": 0.9258}, {"measurement": "CMV-LACZ in Myotubes, signal relative to DMSO", "setting": "[3]; 20 uM, C2C12 CMV-LacZ myotubes, fold relative to DMSO", "value": 1.025}, {"measurement": "CMV-LACZ in Myotubes, signal relative to DMSO", "setting": "[3]; 40 uM, C2C12 CMV-LacZ myotubes, fold relative to DMSO", "value": 1.112}]}
